Our source for the AC50 values is PubChem BioAssay AID624134 (Broad Institute, 2012).

“And” between values parts separate entries of the source, which are not always exact repeats. Equal entries are not always repeated. Records with an inconclusive call do not appear. The source made the active and inactive calls.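 Rule for the calls: active = signal drop with fitted half-maximal concentration no higher than twice the top valid tested concentration; inconclusive = flat curve with 30 to 70% signal loss, or poor fit; inactive = the rest, including signal rises and flat curves within 30%.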

The subject of the test is HepG2 viability, CellTiter-Glo ATP luminescence, 48 h. Put plainly: HepG2 cell cytotoxicity, dose response, cytotoxicity control for Shn3 inhibitor project, CellTiter-Glo, cherry-picked (AID 624134).
The AC50 is the concentration at which the activity in the assay is half-maximal. With `CCN1CCN(Cc2ccc(NC(=O)c3cc(NC(=O)c4cc5cccc(OC)c5o4)cc(OC)c3)cc2C(F)(F)F)CC1`, the AC50 is 18.9 µM and 9.13 µM.

Regarding `CC(=O)OC1C(=O)OCC23CCC4(C)OC4C2OC2CC(OC(=O)C=CC=CC(=O)OCCC1C)C3(C)C21CO1` (stereo not given), the AC50 is > 70 µM (inactive).

`CC(=O)OC[C@]12CCC(C)=C[C@H]1O[C@@H]1[C@H](O)[C@@H](OC(C)=O)[C@@]2(C)[C@]12CO2`: the AC50 was > 70 µM (inactive).

With `CC(=O)OCC12CC(OC(=O)CC(C)C)C(C)=CC1OC1C(O)C(OC(C)=O)C2(C)C12CO2` (stereo not given), the AC50 was > 70 µM (inactive).

Consider `C[C@H]1[C@@H](OS(=O)(=O)O)C[C@@H]2C[C@H]([C@@H](O)c3cc(=O)[nH]c(=O)[nH]3)NC3=NC[C@H]1N32`, for which the AC50 was 8.33 µM.
